In article PMC2330188 (Acta Crystallographica Section F: Structural Biology and …, 2007):

Target: 5-formyltetrahydrofolate cyclo-ligase (BA4489) (Bacillus anthracis, UniProt A0A6L8PZ12)
Sequence (A0A6L8PZ12 2-192 limits assumed): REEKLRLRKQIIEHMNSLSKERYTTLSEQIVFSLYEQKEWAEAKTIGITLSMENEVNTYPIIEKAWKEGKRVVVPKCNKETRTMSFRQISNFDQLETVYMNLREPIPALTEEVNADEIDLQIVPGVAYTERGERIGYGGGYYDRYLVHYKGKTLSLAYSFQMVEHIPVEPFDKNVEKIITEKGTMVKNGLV

For O=P(O)(O)O [phosphate], the “X-ray crystal structure, 1.6 Å” value was “hydrolysed to ADP and inorganic phosphate”.
